Laboratory results from US9062033B2, “Chemical compounds” (Rottapharm Biotech S.r.l., priority 2011, dated 2015).
Like-named read-outs stand apart in the source and are kept apart here.

What was measured:
human OX1 receptors = target: T1, human OX1 receptors (Homo sapiens, UniProt O43613); assay: Antagonistic activity against human OX1 receptor, [Ca2+]i fluorimetry (Fluo-4NW) in transfected CHO cells activated with orexin-A; type: cell-based; conditions: CHO cells transfected with human recombinant OX1; orexin-A 3 nM; pKb = co-logarithm of apparent dissociation constant, modified Cheng Prusoff
T1 construct: expressed in transfected cells; host or cells: CHO cells
T1 sequence (O43613 1-425): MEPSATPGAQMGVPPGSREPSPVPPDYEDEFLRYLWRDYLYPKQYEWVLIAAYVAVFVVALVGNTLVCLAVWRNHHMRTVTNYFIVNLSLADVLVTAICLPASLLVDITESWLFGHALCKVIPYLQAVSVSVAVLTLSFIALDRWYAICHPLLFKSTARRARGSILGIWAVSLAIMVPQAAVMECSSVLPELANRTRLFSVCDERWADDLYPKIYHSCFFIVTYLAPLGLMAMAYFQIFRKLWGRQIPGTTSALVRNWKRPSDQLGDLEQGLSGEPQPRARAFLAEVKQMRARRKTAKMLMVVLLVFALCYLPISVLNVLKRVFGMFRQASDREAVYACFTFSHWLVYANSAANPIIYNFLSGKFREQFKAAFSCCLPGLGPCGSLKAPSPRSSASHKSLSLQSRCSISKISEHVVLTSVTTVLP
Procedure: (§1) In a typical experiment, the antagonistic activity against human OX1 and OX2 receptors is determined by using CHO e HEK-293 cells transfected with human recombinant OX1 and OX2 receptors respectively, seeded at density of 2 and 3×10^4 cells/well respectively in a 96 fluorimetry well plate. Thus the plate was loaded with the calcium dye (Fluo-4NW/probenecid in HBSS, Hepes 20 mM, pH 7.4; Invitrogen) at 37° C. for 60 min. Afterward the temperature was equilibrated at 22° C. for 15 min and the [Ca2+]i measured directly on the plate by using a fluorescent plate reader (CellLux Perkin Elmer).
(§2) Invention compounds were dissolved in DMSO, diluted in HBSS (DMSO, 0.3% final) and added to the wells. After 5 min CHO cells were activated with orexin-A, 3 nM while HEK-293 cells were activated with orexin-B, 10 nM.
(§3) The compounds, dissolved in DMSO and diluted in the medium (DMSO, 0.3% final), have been analysed in the 1 nM-1 μM concentration range (every concentration in duplicate). The antagonistic activity has been expressed as pKb (co-logarithm of the apparent dissociation constant calculated by using the modified Cheng Prusoff equation).
(§4) The results are expressed as percent of control specific […] response ((measured specific response/control specific agonist response)×100) obtained in the presence of the test compounds.
(§5) The IC50 values (concentration causing a half-maximal inhibition of the control specific agonist response) were determinated by non-linear regression analysis of the concentration curves generated with mean replicate values using hill equation curve fitting. The IC50 values are obtained by the arithmetical mean of at least two experiments. Compounds of the following example tested according to this example gave pKbs as follows: […]

human OX2 receptors = target: T2, human OX2 receptors (Homo sapiens, UniProt O43614); assay: Antagonistic activity against human OX2 receptor, [Ca2+]i fluorimetry (Fluo-4NW) in transfected HEK-293 cells activated with orexin-B; type: cell-based
T2 construct: expressed in transfected cells; host or cells: HEK-293 cells
T2 sequence (O43614 1-444): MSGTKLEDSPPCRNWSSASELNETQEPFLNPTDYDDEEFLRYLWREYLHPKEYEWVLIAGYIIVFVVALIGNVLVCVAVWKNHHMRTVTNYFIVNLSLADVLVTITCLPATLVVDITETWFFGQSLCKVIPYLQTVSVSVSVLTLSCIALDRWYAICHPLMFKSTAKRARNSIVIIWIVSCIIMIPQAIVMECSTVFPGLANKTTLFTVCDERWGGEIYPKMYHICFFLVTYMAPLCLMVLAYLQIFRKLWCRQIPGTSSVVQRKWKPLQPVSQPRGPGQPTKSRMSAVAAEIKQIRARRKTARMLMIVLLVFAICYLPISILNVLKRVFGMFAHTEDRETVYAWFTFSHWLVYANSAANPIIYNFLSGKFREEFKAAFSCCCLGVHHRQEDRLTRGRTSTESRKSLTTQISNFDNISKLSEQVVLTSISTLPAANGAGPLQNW
Procedure: as §1, §2, §3, §4, §5

[1] = HEK-293 cells transfected with human recombinant OX2, orexin-B 10 nM, pKb = co-logarithm of apparent dissociation constant, modified Cheng Prusoff

Kb (human OX1 receptors) [nM]	Kb (human OX2 receptors; [1]) [nM]	Kb (human OX2 receptors; comparison table with compound of WO2011006960, read-out: pKb OX2 (converted)) [nM]	SMILES
79.4	79.4		Cc1ccc(OCc2ccc(F)cc2F)c(C(=O)N2CC3(CC3)C[C@H]2CNc2ccc(C(F)(F)F)cn2)n1 [Compound 3n, (S)-(3-((2,4-difluorobenzyl)oxy)-6-methylpyridin-2-yl)(6-(((5-(trifluoromethyl)pyridin-2-yl)amino)methyl)-5-azaspiro[2.4]heptan-5-yl)methanone]
39.8	31.6		Cc1ccc(-c2ccc(C)nc2C(=O)N2CC3(CC3)C[C@H]2CNc2ccc(C(F)(F)F)cn2)c(F)c1 [Compound E4, (S)-(3-(2-fluoro-4-methylphenyl)-6-methylpyridin-2-yl)(6-(((5-(trifluoromethyl)pyridin-2-yl)amino)methyl)-5-azaspiro[2.4]heptan-5-yl)methanone]
100	200		Cc1ccc(-c2cccnc2)c(C(=O)N2CC3(CC3)C[C@H]2CNc2ccc(C(F)(F)F)cn2)n1 [Compound E6, (S)-(6-methyl-[3,3′-bipyridin]-2-yl)(6-(((5-(trifluoromethyl)pyridin-2-yl)amino)methyl)-5-azaspiro[2.4]heptan-5-yl)methanone]
6.31	39.8		Cc1ccc(-c2ncccn2)c(C(=O)N2CC3(CC3)C[C@H]2CNc2ncc(Cl)cc2F)n1 [Compound 3c, (S)-(6-(((5-chloro-3-fluoropyridin-2-yl)amino)methyl)-5-azaspiro[2.4]heptan-5-yl)(6-methyl-3-(pyrimidin-2-yl)pyridin-2-yl)methanone]
1.26	5.01		Cc1cnn(-c2ccc(C)nc2C(=O)N2CC3(CC3)C[C@H]2CNc2ccc(C(F)(F)F)cn2)c1 [Compound 3i, (S)-(6-methyl-3-(4-methyl-1H-pyrazol-1-yl)pyridin-2-yl)(6-(((5-(trifluoromethyl)pyridin-2-yl)amino)-methyl)-5-azaspiro[2.4]heptan-5-yl)methanone]
3.98	7.94		Cc1ccc(-c2ccccc2)c(C(=O)N2CC3(CC3)C[C@H]2CNc2ncc(C(F)(F)F)cc2F)n1 [Compound 3e, (S)-(6-(((3-fluoro-5-(trifluoromethyl)pyridin-2-yl)amino)methyl)-5-azaspiro[2.4]heptan-5-yl)(6-methyl-3-phenylpyridin-2-yl)methanone]
10	50.1		O=C(c1ncccc1-c1ccccc1)N1CC2(CC2)C[C@H]1CNc1ccc(C(F)(F)F)cn1 [Compound E5, (S)-(3-phenylpyridin-2-yl)(6-(((5-(trifluoromethyl)-pyridin-2-yl)amino)methyl)-5-azaspiro[2.4]heptan-5-yl)methanone]
7.94	7.94		Cc1ccc(-c2ccc(F)cc2)c(C(=O)N2CC3(CC3)C[C@H]2CNc2ccc(C(F)(F)F)cn2)n1 [Compound 3f, (S)-(3-(4-fluorophenyl)-6-methylpyridin-2-yl)(6-(((5-(trifluoromethyl)pyridin-2-yl)amino)methyl)-5-azaspiro[2.4]heptan-5-yl)methanone]
2.51	2.51		Cc1ccc(OCc2ccccc2)c(C(=O)N2CC3(CC3)C[C@H]2CNc2ccc(C(F)(F)F)cn2)n1 [Compound 3k, (S)-(3-(benzyloxy)-6-methylpyridin-2-yl)(6-(((5-(trifluoromethyl)pyridin-2-yl)amino)methyl)-5-azaspiro[2.4]heptan-5-yl)methanone]

Second part, the compound before the results:

SMILES	Kb (human OX1 receptors) [nM]	Kb (human OX2 receptors; [1]) [nM]	Kb (human OX2 receptors; comparison table with compound of WO2011006960, read-out: pKb OX2 (converted)) [nM]
Cc1nc(C(=O)N2CC3(CC3)C[C@H]2CNc2cc(C(F)(F)F)ccn2)c(-c2ccccc2)s1 [Compound 2j, (S)-(2-methyl-5-phenylthiazol-4-yl)(6-(((4-(trifluoromethyl)pyridin-2-yl)amino)methyl)-5-azaspiro[2.4]heptan-5-yl)methanone]	6.31	3.16	
O=C(c1cccc2c1OC(F)(F)O2)N1CC2(CC2)C[C@H]1CNc1ccc(C(F)(F)F)cn1 [Compound 1b, (S)-(2,2-difluorobenzo[d][1,3]dioxol-4-yl)(6-(((5-(trifluoromethyl)pyridin-2-yl)amino)methyl)-5-azaspiro[2.4]heptan-5-yl)methanone]	79.4	63.1	
Cc1nc(C(=O)N2CC3(CC3)C[C@H]2CNc2nc3ccc(Cl)cc3s2)c(-c2ccccc2)s1 [Compound 2i, (S)-(6-(((6-chlorobenzo[d]thiazol-2-yl)amino)methyl)-5-azaspiro[2.4]heptan-5-yl)(2-methyl-5-phenylthiazol-4-yl)methanone]	12.6	31.6	
Cc1nc(C(=O)N2CC3(CC3)C[C@H]2CNc2ncc(Cl)cn2)c(-c2ccccc2)s1 [Compound 2g, (S)-(6-(((5-chloropyrimidin-2-yl)amino)methyl)-5-azaspiro[2.4]heptan-5-yl)(2-methyl-5-phenylthiazol-4-yl)methanone]	158	158	
Cc1ccc(-c2ncccn2)c(C(=O)N2CC3(CC3)C[C@H]2CNc2ncc(C(F)(F)F)cn2)c1 [Compound 1s, (S)-(5-methyl-2-(pyrimidin-2-yl)phenyl)(6-(((5-(trifluoromethyl)pyrimidin-2-yl)amino)methyl)-5-azaspiro[2.4]heptan-5-yl)methanone]	25.1	100	
Cc1cc(C)nc(NC[C@@H]2CC3(CC3)CN2C(=O)c2nc(C)sc2-c2ccccc2)n1 [Compound 2f, (S)-(6-(((4,6-dimethylpyrimidin-2-yl)amino)methyl)-5-azaspiro[2.4]heptan-5-yl)(2-methyl-5-phenylthiazol-4-yl)methanone]	31.6	2.51	
O=C(c1cc(Cl)ccc1-c1ncccn1)N1CC2(CC2)C[C@H]1CNc1cc(C(F)(F)F)c(Cl)cn1 [Compound 1t, (S)-(5-chloro-2-(pyrimidin-2-yl)phenyl)(6-(((5-chloro-4-(trifluoromethyl)pyridin-2-yl)amino)methyl)-5-azaspiro[2.4]heptan-5-yl)methanone]	7.94	20	
O=C(c1cc(Cl)ccc1-c1ncccn1)N1CC2(CC2)C[C@H]1CNc1cc(Cl)c(C(F)(F)F)cn1 [Compound 1v, (S)-(5-chloro-2-(pyrimidin-2-yl)phenyl)(6-(((4-chloro-5-(trifluoromethyl)pyridin-2-yl)amino)methyl)-5-azaspiro[2.4]heptan-5-yl)methanone]	6.31	10	
Cc1cc(C(F)(F)F)cc(NC[C@@H]2CC3(CC3)CN2C(=O)c2cc(F)ccc2-c2ncccn2)n1 [Compound 1j, (S)-(5-fluoro-2-(pyrimidin-2-yl)phenyl)(6-(((6-methyl-4-(trifluoromethyl)pyridin-2-yl)amino)methyl)-5-azaspiro[2.4]heptan-5-yl)methanone]	20	6.31	
O=C(c1cc(Cl)ccc1-c1ncccn1)N1CC2(CC2)C[C@H]1CNc1ncc(C(F)(F)F)cn1 [Compound 1u, (S)-(5-chloro-2-(pyrimidin-2-yl)phenyl)(6-(((5-(trifluoromethyl)pyrimidin-2-yl)amino)methyl)-5-azaspiro[2.4]heptan-5-yl)methanone]	15.8	200	
Cc1cccc(C(=O)N2CC3(CC3)C[C@H]2CNc2ccc(C(F)(F)F)cn2)c1-c1ncccn1 [Compound 1c, (S)-(3-methyl-2-(pyrimidin-2-yl)phenyl)(6-(((5-(trifluoromethyl)pyridin-2-yl)amino)methyl)-5-azaspiro[2.4]heptan-5-yl)methanone]	12.6	200	
Cc1ccc(-c2ncccn2)c(C(=O)N2CC3(CC3)C[C@H]2CNc2ccc(Cl)cn2)c1 [Example 51 of WO2011006960, reference compound]			> 10000
